We go through 1 compound from US11992500B2, “Use of methylation inhibitors for the treatment of autoimmune diseases” (Rush University Medical Center, priority 2018, dated 2024).

“Also recorded” adds a separate entry of the source.

For series [1], the system named is A20 cells. The experiment in a line: Gene expression (qRT-PCR) in A20 cells cultured with epigenetic enzyme inhibitors. Format: cell-based, mouse. How it is done:
Cell cultures: A20 mouse B cell line were purchased from American Type Culture Collection (ATCC) and were maintained at 37° C. in a 5% CO2-humidified atmosphere on Dulbecco's modified Eagle's medium (DMEM) containing 10% fetal bovine serum (FBS) and […] each of penicillin and streptomycin. Human B cell line GM12878 were purchased from ATCC and cultured in RPMI 1640 media and maintained at 37° C. in a 5% CO2-humidified incubator as described above.
Azacitidine (AzaC) treatment of A20 cells: […] were seeded into 6-well plates containing 3 ml cell culture medium. Before AzaC treatment, cells were incubated for 16-18 hours at 37° C. in 5% CO2. Cells were treated with AzaC to a final concentration of 5, 10 and […], control cells were treated with 0.15% DMSO. Cells were incubated for 48, 72 and 96 hours under standard cell culture conditions. After 48 and 72 hours AzaC was replenished to keep the desired AzaC concentration. Harvested cells were washed with phosphate buffered saline (PBS) and viability and cell numbers were assessed on Vi-cell XR cell counter (Beckmann Counter).
RNA isolation, cDNA synthesis, and quantitative reverse transcription-polymerase chain reaction (qRT-PCR): Total RNA from cell culture was isolated using QIAmp RNA Blood Kit (Qiagen) or Direct-Zol™ RNA miniprep Kit (Zymo Research). Each RNA sample was digested with 4U of TurboDNase™ (Ambion) and purified with RNA clean and concentrator-5 (Zymo Research) and samples quantified using NanoDrop 1000 spectrophotometer. Primary mouse cells were collected from the spleens, on day 9 after the third PG injection. B cells were purified using antibody-coated magnetic beads (StemCell Technologies). RNA was isolated from purified mouse lymphocytes using a TRI reagent (Sigma-Aldrich) immediately after separation.
Human peripheral blood mononuclear cells (PBMCs) were separated on a Ficoll gradient from blood samples obtained from consenting, healthy individuals and from RA patients naive to treatment with disease-modifying antirheumatic drugs (DMARDs). The isolated mononuclear cells were stored in RNAlater (Life Technologies) until RNA preparation. Complementary DNA was reverse transcribed from 1 μg total RNA with iScript™ Reverse Transcription Supermix (Bio-Rad Laboratories). Quantitative RT-PCR (CFX Connect™, Bio-Rad Laboratories) was performed in triplicate using SsoAdvanced™ Universal SYBR Green Supermix (Bio-Rad Laboratories) in 10 μl. Quantitative RT-PCR was performed using CFX machine (Bio-Rad). Primers were designed using PrimerQuest software and were manufactured by Integrated DNA Technologies. The qRT-PCR primer sequences are available upon request from the corresponding author. The specificity of the qRT-PCR product was monitored by a post-PCR melting curve analysis. Samples were tested in duplicate, and the CFX manager software was used to calculate the normalized fold expression changes based on the ΔΔCt method. Measured Ct values were normalized to β-actin internal control values.

Series [2] concerns A20 cells. The series is described as above. Format: cell-based, mouse. This is another data set of the same source.
Where [3] appears, read: AzaC 48 hours, plasmid not expressing Ahr-specific shRNA.
[4] abbreviates: 72 hours, AzaC 2, 5, 10 μM, SAHA 0.1, 0.5, 1.0 μM, GSK126 5, 10, 15 μM, FIG. 6.

In the case of `Nc1ncn([C@@H]2O[C@H](CO)[C@@H](O)[C@H]2O)c(=O)n1` [AzaC, 4-Amino-1-(β-D-ribofuranosyl)-1,3,5-triazin-2(1H)-one], in series [1] (10 μM AzaC for 72 hours, FIG. 5(C)), the “Expression of tentative AhR target genes (cytokine genes)” value was “could significantly alter the expression of three tentative AhR target genes”. For the same compound, the “Aicda expression with Ahr-specific shRNA” value in series [1] (AzaC 48 hours plus Ahr-specific shRNA-expressing construct) is on record as “reversed”. Besides, in series [1] (setting [3]), the “Ahr expression, control plasmid” value is recorded as “significantly increased” and the “Aicda expression, control plasmid” value is listed as “downregulated”. In series [1] (AzaC in various concentrations (5, 10, 15 μM), followed for three days, FIG. 1(L)), the AhR gene expression entry is recorded as “could revive AhR expression after two days”. Further, the Cyp1a1 gene expression entry in series [1] (AzaC treatment) is recorded as “elevated expression of Cyp1a1 gene”. Moreover, the Arnt expression result in series [1] (AzaC treatment, FIG. 1(M), FIG. 2(A)) was “increased; also recorded: reactivated; also recorded: just prolonged and high concentration AzaC treatment could have released it from the silent state”. Also, in series [1] (AzaC treatment, FIG. 2(B)), the RelB expression entry was “increased”. The “Ahr expression, time course” value in series [2] (10 μM AzaC, 24, 48 and 72 hours) is “could be reactivated; also recorded: increased Ahr expression; also recorded: significantly increased; also recorded: releases Ahr from DNA methylation-mediated silencing”. Besides, in series [2] (setting [4]), the AhR gene expression entry is on record as “significant reactivation” and the Arnt gene expression result was “could not trigger significant upregulation”. Besides, the Aicda expression entry in series [2] (extended exposure to AzaC (24-72 hours)) is “significantly downregulated; also recorded: reduces Aicda expression; also recorded: downregulated expression”.
